The results in this text go back to the supplement of paper PMC10307832.

Holding throughout (assay): relative viability (nuclei count vs DMSO), 5 days (fraction); higher = more cells survive
Compound in assay [1]: CCN1CCC(CC1)N2C=C(N=N2)CNC3=CC4=C(C(=CN=C4C(=C3)Cl)C#N)NC5=CC(=C(C=C5)F)Cl [KIN001-266] + Nc1nc2[nH]cc(CCc3ccc(C(=O)N[C@@H](CCC(=O)O)C(=O)O)cc3)c2c(=O)[nH]1 [Pemetrexed] (partner 0.2 µM)
The procedure, abridged: (§1)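 After 5 days of treatment, lung cancer cells in 1536-well plates were fixed and stained in a single step (final 0.05% Triton X-100, 1% formaldehyde, 1 ug/ml Hoechst) and their nuclei counted on 4× images. Treatment had been applied by pin tool the day after seeding as one drug alone or as a fixed anchor-drug dose with five library-drug doses (not always all listed) in √10 steps. Relative viability is the nuclei count of treated wells divided by that of vehicle wells, and values are medians of duplicate plates.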

Compound in assay [2]: CCN1CCC(CC1)N2C=C(N=N2)CNC3=CC4=C(C(=CN=C4C(=C3)Cl)C#N)NC5=CC(=C(C=C5)F)Cl [KIN001-266] + Cc1nc(NC(=O)N2CCC[C@H]2C(N)=O)sc1-c1ccnc(C(C)(C)C(F)(F)F)c1 [Alpelisib] (partner 2 µM)
The procedure, abridged: as §1

Compound in assay [3]: CCN1CCC(CC1)N2C=C(N=N2)CNC3=CC4=C(C(=CN=C4C(=C3)Cl)C#N)NC5=CC(=C(C=C5)F)Cl [KIN001-266] + COc1cc2c(Oc3ccc(NC(=O)C4(C(=O)Nc5ccc(F)cc5)CC4)cc3F)ccnc2cc1OCCCN1CCOCC1 [Foretinib] (partner 0.25 µM)
The procedure, abridged:
as §1

Compound in assay [4]: CCN1CCC(CC1)N2C=C(N=N2)CNC3=CC4=C(C(=CN=C4C(=C3)Cl)C#N)NC5=CC(=C(C=C5)F)Cl [KIN001-266] + O=C(c1cc(Cc2n[nH]c(=O)c3ccccc23)ccc1F)N1CCN(C(=O)C2CC2)CC1 [Olaparib] (partner 8 µM)
In a few lines: as §1

As for H3255, the relative viability in assay [1] (first compound 0.08 µM) came to 0.55; in assay [1] (first compound 0.253 µM) it was 0.585; in assay [1] (first compound 0.8 µM), 0.5; in assay [1] (first compound 2.53 µM), 0.506; in assay [1] (first compound 8 µM), 0.505; in assay [2] (first compound 0.08 µM), 0.685. Moreover, the relative viability in assay [2] (first compound 0.253 µM) came to 0.737; in assay [2] (first compound 0.8 µM), 0.756; in assay [2] (first compound 2.53 µM) it was 0.785; in assay [2] (first compound 8 µM) it was 0.475; in assay [3] (first compound 0.08 µM), 0.801; in assay [3] (first compound 0.253 µM), 0.862. The relative viability in assay [3] (first compound 0.8 µM) stood at 0.797; in assay [3] (first compound 2.53 µM), 0.957; in assay [3] (first compound 8 µM) it was 0.725; in assay [4] (first compound 0.08 µM) it was 0.583; in assay [4] (first compound 0.253 µM) it was 0.55; in assay [4] (first compound 0.8 µM) it was 0.565. Further, the results for the relative viability in assay [4] (first compound 2.53 µM) and in assay [4] (first compound 8 µM) were 0.517 and 0.455, respectively.

With EPLC-272H, the relative viability came out at 0.373 in assay [1] (first compound 0.08 µM); 0.364 in assay [1] (first compound 0.253 µM); 0.374 in assay [1] (first compound 0.8 µM); 0.319 in assay [1] (first compound 2.53 µM); 0.323 in assay [1] (first compound 8 µM); 1.05 in assay [2] (first compound 0.08 µM). In addition, the relative viability was 0.874 in assay [2] (first compound 0.253 µM); 0.938 in assay [2] (first compound 0.8 µM); 0.842 in assay [2] (first compound 2.53 µM); 0.74 in assay [2] (first compound 8 µM); 0.777 in assay [3] (first compound 0.08 µM); 0.763 in assay [3] (first compound 0.253 µM). Besides, the relative viability in assay [3] (first compound 0.8 µM) was determined as 0.728; in assay [3] (first compound 2.53 µM), 0.636; in assay [3] (first compound 8 µM) it was 0.208; in assay [4] (first compound 0.08 µM), 0.885; in assay [4] (first compound 0.253 µM), 0.869; in assay [4] (first compound 0.8 µM), 1.08. The relative viability in assay [4] (first compound 2.53 µM) was determined as 0.643; in assay [4] (first compound 8 µM) it was 0.273.

With PC-3 [JPC-3], the relative viability came to 1.08 in assay [1] (first compound 0.08 µM); 1.09 in assay [1] (first compound 0.253 µM); 1.14 in assay [1] (first compound 0.8 µM); 1.1 in assay [1] (first compound 2.53 µM); 0.965 in assay [1] (first compound 8 µM); 1.04 in assay [2] (first compound 0.08 µM). Further, the relative viability in assay [2] (first compound 0.253 µM) came to 1.02; in assay [2] (first compound 0.8 µM) it was 0.957; in assay [2] (first compound 2.53 µM), 0.983; in assay [2] (first compound 8 µM), 0.896; in assay [3] (first compound 0.08 µM), 1.02; in assay [3] (first compound 0.253 µM) it was 1.04. For the same cell line, the relative viability in assay [3] (first compound 0.8 µM) is 0.983; in assay [3] (first compound 2.53 µM) it was 0.972; in assay [3] (first compound 8 µM), 0.889; in assay [4] (first compound 0.08 µM) it was 1.09; in assay [4] (first compound 0.253 µM) it was 1.21; in assay [4] (first compound 0.8 µM), 1.08. Also, the relative viability in assay [4] (first compound 2.53 µM) turned out to be 1.14; in assay [4] (first compound 8 µM), 0.963.

For the cell line NCI-H1793, the relative viability stood at 0.895 in assay [1] (first compound 0.08 µM); 0.925 in assay [1] (first compound 0.253 µM); 0.771 in assay [1] (first compound 2.53 µM); 0.621 in assay [1] (first compound 8 µM); 0.829 in assay [2] (first compound 0.08 µM); 0.624 in assay [2] (first compound 0.253 µM). The relative viability in assay [2] (first compound 0.8 µM) was determined as 0.822; in assay [2] (first compound 2.53 µM) it was 0.897; in assay [2] (first compound 8 µM), 0.572; in assay [3] (first compound 0.08 µM), 0.598; in assay [3] (first compound 0.253 µM), 0.812; in assay [3] (first compound 0.8 µM), 0.718. Further, the relative viability was 0.883 in assay [3] (first compound 2.53 µM); 0.705 in assay [3] (first compound 8 µM); 0.864 in assay [4] (first compound 0.08 µM); 0.823 in assay [4] (first compound 0.253 µM); 0.923 in assay [4] (first compound 2.53 µM); 0.711 in assay [4] (first compound 8 µM).
